Measured values published in US10987359B2, “Oxadiazepinone derivatives and methods of treating hepatitis B infections” (priority 2016, dated 2021).

Test system: HBV
Assay: HBV replication inhibition assay (BDNA assay) in HepG2.2.15 cells
Format: cell-based
Conditions: HBV replication assay (BDNA assay), HepG2.2.15 cells; read-out: DNA EC50
Outline: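 Supernatant encapsidated HBV DNA was measured by bDNA after DNase digestion and proteinase K release. Stably HBV-integrated HepG2.2.15 cells had two 3-day compound exposures (0.5% DMSO). Signals were background-subtracted and normalized to DMSO wells, and EC50 was obtained by four-parameter fit.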

Structure (SMILES) | EC50 [µM]
CC(=O)NCC1Cn2nc3c(c2C(=O)N(C)O1)CN(C(=O)Nc1ccc(F)c(C#N)c1)[C@H](C)C3 (single isomer, unassigned) [Compound 176_D1, (4S*,9R)-4-(acetamidomethyl)-N-(3-cyano-4-fluorophenyl)-2,9-dimethyl-1-oxo-1,4,5,8,9,11-hexahydropyrido[4′,3′:3,4]pyrazolo[5,1-d][1,2,5]oxadiazepine-10(2H)-carboxamide] | 0.1 to 0.5
CC(=O)NCC1Cn2nc3c(c2C(=O)N(C)O1)CN(C(=O)Nc1ccc(F)c(C#N)c1)[C@H](C)C3 (single isomer, unassigned) [Compound 176_D2, (4R*,9R)-4-(acetamidomethyl)-N-(3-cyano-4-fluorophenyl)-2,9-dimethyl-1-oxo-1,4,5,8,9,11-hexahydropyrido[4′,3′:3,4]pyrazolo[5,1-d][1,2,5]oxadiazepine-10(2H)-carboxamide] | 0.001 to 0.1
CC(=O)NCC1Cn2nc3c(c2C(=O)N(C)O1)CN(C(=O)Nc1ccc(F)c(C(F)(F)F)c1)[C@H](C)C3 (single isomer, unassigned) [Compound 177_D2, (4R*,9R)-4-(acetamidomethyl)-N-(4-fluoro-3-(trifluoromethyl)phenyl)-2,9-dimethyl-1-oxo-1,4,5,8,9,11-hexahydropyrido[4′,3′:3,4]pyrazolo[5,1-d][1,2,5]oxadiazepine-10(2H)-carboxamide] | 0.001 to 0.1
C[C@@H]1Cc2nn3c(c2CN1C(=O)Nc1ccc(F)c(C#N)c1)C(=O)N(C)OC(CNS(C)(=O)=O)C3 (single isomer, unassigned) [Compound 178_D1, (4S*,9R)—N-(3-cyano-4-fluorophenyl)-2,9-dimethyl-4-(methylsulfonamidomethyl)-1-oxo-1,4,5,8,9,11-hexahydropyrido[4′,3′:3,4]pyrazolo[5,1-d][1,2,5]oxadiazepine-10(2H)-carboxamide] | 0.1 to 0.5
C[C@@H]1Cc2nn3c(c2CN1C(=O)Nc1ccc(F)c(C#N)c1)C(=O)N(C)OC(CNS(C)(=O)=O)C3 (single isomer, unassigned) [Compound 178_D2, (4R*,9R)—N-(3-cyano-4-fluorophenyl)-2,9-dimethyl-4-(methylsulfonamidomethyl)-1-oxo-1,4,5,8,9,11-hexahydropyrido[4′,3′:3,4]pyrazolo[5,1-d][1,2,5]oxadiazepine-10(2H)-carboxamide] | 0.001 to 0.1
C[C@@H]1Cc2nn3c(c2CN1C(=O)Nc1ccc(F)c(C(F)(F)F)c1)C(=O)N(C)OC(CNS(C)(=O)=O)C3 (single isomer, unassigned) [Compound 179_D2, (4R*,9R)—N-(4-fluoro-3-(trifluoromethyl)phenyl)-2,9-dimethyl-4-(methylsulfonamidomethyl)-1-oxo-1,4,5,8,9,11-hexahydropyrido[4′,3′:3,4]pyrazolo[5,1-d][1,2,5]oxadiazepine-10(2H)-carboxamide] | 0.001 to 0.1
COC(=O)NCC1Cn2nc3c(c2C(=O)N(C)O1)CN(C(=O)Nc1ccc(F)c(C#N)c1)[C@H](C)C3 (single isomer, unassigned) [Compound 180_D2, methyl (((4R*,9R)-10-((3-cyano-4-fluorophenyl)carbamoyl)-2,9-dimethyl-1-oxo-1,2,4,5,8,9,10,11-octahydropyrido[4′,3′:3,4]pyrazolo[5,1-d][1,2,5]oxadiazepin-4-yl)methyl)carbamate] | 0.001 to 0.1
COC(=O)NCC1Cn2nc3c(c2C(=O)N(C)O1)CN(C(=O)Nc1ccc(F)c(C(F)(F)F)c1)[C@H](C)C3 (single isomer, unassigned) [Compound 181_D2, methyl (((4R*,9R)-10-((4-fluoro-3-(trifluoromethyl)phenyl)carbamoyl)-2,9-dimethyl-1-oxo-1,2,4,5,8,9,10,11-octahydropyrido[4′,3′:3,4]pyrazolo[5,1-d][1,2,5]oxadiazepin-4-yl)methyl)carbamate] | 0.001 to 0.1
C[C@@H]1Cc2nn3c(c2CN1C(=O)Nc1ccc(F)c(C(F)(F)F)c1)C(=O)N(C)OC(CNCC(F)F)C3 (single isomer, unassigned) [Compound 182_D2, (4R*,9R)-4-(((2,2-difluoroethyl)amino)methyl)-N-(4-fluoro-3-(trifluoromethyl)phenyl)-2,9-dimethyl-1-oxo-1,4,5,8,9,11-hexahydropyrido[4′,3′:3,4]pyrazolo[5,1-d][1,2,5]oxadiazepine-10(2H)-carboxamide] | 0.001 to 0.1

Same assay, conditions: Hepatitis B virus, HepG2.2.15, HBV replication assay (BDNA assay), HepG2.2.15 cells; read-out: DNA EC50

Structure (SMILES) | EC50 [µM]
CC(=O)NCC1Cn2nc3c(c2C(=O)N(C)O1)CN(C(=O)Nc1cc(Br)c(F)cc1F)CC3 (single isomer, unassigned) [Compound 174_E1, (S*)-4-(acetamidomethyl)-N-(5-bromo-2,4-difluorophenyl)-2-methyl-1-oxo-1,4,5,8,9,11-hexahydropyrido[4′,3′:3,4]pyrazolo[5,1-d][1,2,5]oxadiazepine-10(2H)-carboxamide] | 0.001 to 0.1
CC(=O)NCC1Cn2nc3c(c2C(=O)N(C)O1)CN(C(=O)Nc1ccc(F)c(C(F)(F)F)c1)CC3 (single isomer, unassigned) [Compound 175_E1, (S*)-4-(acetamidomethyl)-N-(4-fluoro-3-(trifluoromethyl)phenyl)-2-methyl-1-oxo-1,4,5,8,9,11-hexahydropyrido[4′,3′:3,4]pyrazolo[5,1-d][1,2,5]oxadiazepine-10(2H)-carboxamide] | 0.001 to 0.1
CC(=O)NCC1Cn2nc3c(c2C(=O)N(C)O1)CN(C(=O)Nc1ccc(F)c(C(F)(F)F)c1)[C@H](C)C3 (single isomer, unassigned) [Compound 177_D1, (4S*,9R)-4-(acetamidomethyl)-N-(4-fluoro-3-(trifluoromethyl)phenyl)-2,9-dimethyl-1-oxo-1,4,5,8,9,11-hexahydropyrido[4′,3′:3,4]pyrazolo[5,1-d][1,2,5]oxadiazepine-10(2H)-carboxamide] | 0.001 to 0.1
C[C@@H]1Cc2nn3c(c2CN1C(=O)Nc1ccc(F)c(C(F)(F)F)c1)C(=O)N(C)OC(CNS(C)(=O)=O)C3 (single isomer, unassigned) [Compound 179_D1, (4 S*,9R)—N-(4-fluoro-3-(trifluoromethyl)phenyl)-2,9-dimethyl-4-(methylsulfonamidomethyl)-1-oxo-1,4,5,8,9,11-hexahydropyrido[4′,3′:3,4]pyrazolo[5,1-d][1,2,5]oxadiazepine-10(2H)-carboxamide] | 0.001 to 0.1
COC(=O)NCC1Cn2nc3c(c2C(=O)N(C)O1)CN(C(=O)Nc1ccc(F)c(C#N)c1)[C@H](C)C3 (single isomer, unassigned) [Compound 180_D1, methyl (((4S*,9R)-10-((3-cyano-4-fluorophenyl)carbamoyl)-2,9-dimethyl-1-oxo-1,2,4,5,8,9,10,11-octahydropyrido[4′,3′:3,4]pyrazolo[5,1-d][1,2,5]oxadiazepin-4-yl)methyl)carbamate] | 0.001 to 0.1
COC(=O)NCC1Cn2nc3c(c2C(=O)N(C)O1)CN(C(=O)Nc1ccc(F)c(C(F)(F)F)c1)[C@H](C)C3 (single isomer, unassigned) [Compound 181_D1, methyl(((4S*,9R)-10-((4-fluoro-3-(trifluoromethyl)phenyl)carbamoyl)-2,9-dimethyl-1-oxo-1,2,4,5,8,9,10,11-octahydropyrido[4′,3′:3,4]pyrazolo[5,1-d][1,2,5]oxadiazepin-4-yl)methyl)carbamate] | 0.001 to 0.1
C[C@@H]1Cc2nn3c(c2CN1C(=O)Nc1ccc(F)c(C(F)(F)F)c1)C(=O)N(C)OC(CNCC(F)F)C3 (single isomer, unassigned) [Compound 182_D1, (4S*,9R)-4-(((2,2-difluoroethyl)amino)methyl)-N-(4-fluoro-3-(trifluoromethyl)phenyl)-2,9-dimethyl-1-oxo-1,4,5,8,9,11-hexahydropyrido[4′,3′:3,4]pyrazolo[5,1-d][1,2,5]oxadiazepine-10(2H)-carboxamide] | 0.001 to 0.1
CN1OC(CNCC(F)F)Cn2nc3c(c2C1=O)CN(C(=O)Nc1ccc(F)c(C#N)c1F)CC3 (single isomer, unassigned) [Compound 186_E1, (S*)—N-(3-cyano-2,4-difluorophenyl)-4-(((2,2-difluoroethyl)amino)methyl)-2-methyl-1-oxo-1,4,5,8,9,11-hexahydropyrido[4′,3′:3,4]pyrazolo[5,1-d][1,2,5]oxadiazepine-10(2H)-carboxamide] | 0.001 to 0.1
CN1OC(CNCC(F)F)Cn2nc3c(c2C1=O)CN(C(=O)Nc1ccc(F)c(C#N)c1)CC3 (single isomer, unassigned) [Compound 187_E1, (S*)—N-(3-cyano-4-fluorophenyl)-4-(((2,2-difluoroethyl)amino)methyl)-2-methyl-1-oxo-1,4,5,8,9,11-hexahydropyrido[4′,3′:3,4]pyrazolo[5,1-d][1,2,5]oxadiazepine-10(2H)-carboxamide] | 0.001 to 0.1
CN1OC(CNCC(F)F)Cn2nc3c(c2C1=O)CN(C(=O)Nc1ccc(F)c(Cl)c1F)CC3 (single isomer, unassigned) [Compound 188_E1, (S*)—N-(3-chloro-2,4-difluorophenyl)-4-(((2,2-difluoroethyl)amino)methyl)-2-methyl-1-oxo-1,4,5,8,9,11-hexahydropyrido[4′,3′:3,4]pyrazolo[5,1-d][1,2,5]oxadiazepine-10(2H)-carboxamide] | 0.001 to 0.1
CN1OC(CNCC(F)F)Cn2nc3c(c2C1=O)CN(C(=O)Nc1ccc(F)c(Br)c1F)CC3 (single isomer, unassigned) [Compound 189_E1, (S*)—N-(3-bromo-2,4-difluorophenyl)-4-(((2,2-difluoroethyl)amino)methyl)-2-methyl-1-oxo-1,4,5,8,9,11-hexahydropyrido[4′,3′:3,4]pyrazolo[5,1-d][1,2,5]oxadiazepine-10(2H)-carboxamide] | 0.001 to 0.1
CN1OC(CNCC(F)F)Cn2nc3c(c2C1=O)CN(C(=O)Nc1ccc(F)c(Br)c1)CC3 (single isomer, unassigned) [Compound 190_E1, (S*)—N-(3-bromo-4-fluorophenyl)-4-(((2,2-difluoroethyl)amino)methyl)-2-methyl-1-oxo-1,4,5,8,9,11-hexahydropyrido[4′,3′:3,4]pyrazolo[5,1-d][1,2,5]oxadiazepine-10(2H)-carboxamide] | 0.001 to 0.1
